In PMC5640562, “Synthesis and anticancer activity of novel quinazolinone-based rhodanines” (Chemistry Central Journal, 2017):
Values belong to the compound of their own block, whether it stands above or below them.

Key:
HT-1080 cells [1] = test: MTT cytotoxicity assay, HT-1080 fibrosarcoma cells; assay type: cell-based, human; conditions: 3 days incubation, mean of three independent experiments (± standard deviation)
Procedure: (§1) The compounds were tested for their cytotoxic activity on a solid tumor cell line, i.e. HT-1080 originating from a fibrosarcoma (American Type Culture Collection; ATCC, Rockville, MD, USA), and on two leukemia cell lines, i.e. the HL-60 human promyelocytic leukemia (European Collection of Animal Cell Cultures; ECACC, Salisbury, UK) and the K-562 human chronic myelogenous leukemia (ATCC). Furthermore, the human skin fibroblast strain AG01523 (Coriell Institute for Medical Research, Camden, NJ, USA) was also used as normal control. Adherent cells were routinely cultured in Dulbecco’s […] (DMEM), and leukemia cells in RPMI 1640, in an environment of 5% CO2, 85% humidity, and 37 °C. All media were supplemented with penicillin (100 U/ml), streptomycin (100 μg/ml) (media and antibiotics from Biochrom KG, Berlin, Germany), and 10% fetal bovine serum (Life Technologies Europe BV, Thessaloniki, Greece). Adherent cells were subcultured using a trypsin (0.25%; Life Technologies Europe BV)—citrate (0.30%; Sigma, St. Louis, MO, USA) solution. The cytotoxicity assay was performed by a modification of the MTT method. Briefly, the cells were plated in flat-bottomed 96-well microplates at a density of 5000 cells/well, and incubated overnight before the addition of serial dilutions of the test compounds. The cells were incubated with the compounds or the corresponding vehicle (DMSO) concentrations for 3 days. Then, the medium was replaced with MTT (Sigma) in serum-free, phenol-red-free DMEM (1 mg/ml). After incubation for 4 h, the MTT formazan was solubilized in 2-propanol, and the optical density was measured using a FLUOstar Optima (BMG Labtech, Ortenberg, Germany) microplate reader at a wavelength of 550 nm (reference wavelength 660 nm). Doxorubicin hydrochloride (Sigma) was included in the experiments as positive control. The results represent the mean of three independent experiments and are expressed as IC50 [42].

HL-60 cells = test: MTT cytotoxicity assay, HL-60 promyelocytic leukemia cells; assay type: cell-based, human; conditions: 3 days incubation, mean of three independent experiments (± standard deviation)
Procedure: as §1

K-562 cells = test: MTT cytotoxicity assay, K-562 chronic myelogenous leukemia cells; assay type: cell-based, human; conditions: 3 days incubation, mean of three independent experiments (± standard deviation)
Procedure: as §1

AG01523 fibroblasts = test: MTT cytotoxicity assay, normal skin fibroblast strain AG01523; assay type: cell-based; conditions: normal human skin fibroblasts, 3 days incubation, mean of three independent experiments (± standard deviation)
Procedure: as §1

[2] = as above; assay type: cell-based; conditions: AG01523 normal skin fibroblasts, normal human skin fibroblasts, 3 days incubation, mean of three independent experiments (± standard deviation)
Procedure: as §1

HT-1080 cells [3] = test: Flow cytometric analysis of DNA content (cell cycle phase distribution); assay type: cell-based, human; conditions: 48 h, flow cytometry of DNA content (not shown)

Compound: COc1cc(C=C2SC(=S)NC2=O)ccc1OCc1nc2ccccc2c(=O)n1-c1ccc(C(F)(F)F)cc1 [Compound 47]
IC50 (HT-1080 cells [1]): 15.8 µM
IC50 (HL-60 cells): 2.6 µM
IC50 HL-60 cytotoxicity (HL-60 cells): low micromolar range
IC50 (K-562 cells): 5.1 µM
IC50 K-562 cytotoxicity (K-562 cells): low micromolar range
IC50 (AG01523 fibroblasts): > 100 µM

Compound: COc1cc(C=C2SC(=S)NC2=O)ccc1OCc1nc2ccccc2c(=O)n1-c1ccc(Cl)cc1 [Compound 43, 5-{4-[(3-(4-Chlorophenyl)-4-oxo-3,4-dihydroquinazolin-2-yl)methoxy]-3-methoxybenzylidene}-2-thioxothiazolidin-4-one]
IC50 (HT-1080 cells [1]; Homo sapiens, HT-1080, 72 h): 10.2 µM
IC50 HL-60 cytotoxicity (HL-60 cells): low micromolar range
IC50 (HL-60 cells; Homo sapiens, HL-60, 72 h): 5.1 µM
IC50 K-562 cytotoxicity (K-562 cells): low micromolar range
IC50 (K-562 cells; Homo sapiens, K562, 72 h): 4.5 µM
IC50 at 3 days [2]: > 100 µM
Cell cycle phase distribution (HT-1080 cells [3]): S-phase arrest

Compound: COc1cc(C=C2SC(=S)NC2=O)ccc1OCc1nc2ccccc2c(=O)n1-c1ccc(Br)cc1 [Compound 45, 5-{4-[(3-(4-Bromophenyl)-4-oxo-3,4-dihydroquinazolin-2-yl)methoxy]-3-methoxybenzylidene}-2-thioxothiazolidin-4-one]
IC50 (HT-1080 cells [1]; Homo sapiens, HT-1080, 72 h): 8.7 µM
IC50 HL-60 cytotoxicity (HL-60 cells): low micromolar range
IC50 (HL-60 cells; Homo sapiens, HL-60, 72 h): 1.2 µM
IC50 K-562 cytotoxicity (K-562 cells): low micromolar range
IC50 (K-562 cells; Homo sapiens, K562, 72 h): 1.5 µM
IC50 at 3 days [2]: > 100 µM
Cell cycle phase distribution (HT-1080 cells [3]): S-phase arrest

melting point: 230 to 232 °C
Compound: O=C1NC(=S)SC1=Cc1ccc(OCc2nc3ccccc3c(=O)n2-c2ccccc2)cc1 [Compound 31, 5-{4-[(3-Phenyl-4-oxo-3,4-dihydroquinazolin-2-yl)methoxy]benzylidene}-2-thioxothiazolidin-4-one]
IC50 (HT-1080 cells [1]; Homo sapiens, HT-1080, 72 h): 42.9 µM

melting point: 163 to 166 °C
Compound: COc1cc(C=C2SC(=S)NC2=O)ccc1OCc1nc2ccccc2c(=O)n1-c1ccc(F)cc1 [Compound 42, 5-{4-[(3-(4-Fluorophenyl)-4-oxo-3,4-dihydroquinazolin-2-yl)methoxy]-3-methoxybenzylidene}-2-thioxothiazolidin-4-one]
IC50 (HT-1080 cells [1]; Homo sapiens, HT-1080, 72 h): 35.8 µM

Compound: COc1cccc2c1C(=O)c1c(O)c3c(c(O)c1C2=O)C[C@@](O)(C(=O)CO)C[C@@H]3O[C@H]1C[C@H](N)[C@H](O)[C@H](C)O1 [Doxorubicin, reference compound]
IC50 (HT-1080 cells [1]; Homo sapiens, HT-1080, 72 h): 0.012 µM
IC50 (HL-60 cells; Homo sapiens, HL-60, 72 h): 0.011 µM
IC50 (K-562 cells; Homo sapiens, K562, 72 h): 0.212 µM
IC50 at 3 days [2]: 0.875 µM

melting point: 165 to 168 °C
Compound: Cc1cccc(-n2c(COc3ccc(C=C4SC(=S)NC4=O)cc3)nc3ccccc3c2=O)c1 [Compound 39, 5-{4-[(3-(3-Methylphenyl)-4-oxo-3,4-dihydroquinazolin-2yl)methoxy]benzylidene}-2-thioxothiazolidin-4-one]
IC50 (HT-1080 cells [1]; Homo sapiens, HT-1080, 72 h): 47.5 µM
